# Assay results as given in patent US9962113B2, “Sensor for measuring the activity of beta-pancreatic cells or of islets of langerhans, manufacture and use of such a sensor” (UNIVERSITE DE BORDEAUX 1, priority 2010, dated 2018).
# Where no end group is shown, it is not given here.
# Test system: β-pancreatic cells
# Assay: Electrical signals (action potentials) of β-pancreatic cells in culture on the microelectrode sensor of FIG. 1
# Type: cell-based
# Protocol: In the example embodiment shown in FIG. 1, the sensor 2 includes a set of 60 microelectrodes distributed over 1 mm^2. The microelectrodes 21 have a disk shape 10 μm in diameter. The sensor 2 also includes β-pancreatic cells 23 in culture on the set of 60 microelectrodes 21. Laboratory tests have been conducted on the sensor 2 of FIG. 1. The first line of FIG. 2 specifies the times at which glucose is present at 20 mM, i.e. from 0 to 50 min. The second line specifies the times at which diazoxide is present at 200 μM, i.e. from around 13 to 16 min and around 27 to 35 min. […] An action potential waveform is visible at the dotted vertical line. The first line of FIG. 4 specifies the time at which the β-pancreatic cells 23 of the sensor 2 are placed in contact with the incretin hormone GLP-1, shown by a vertical arrow.
compound,measurement,setting,value
CC1=NS(=O)(=O)c2cc(Cl)ccc2N1 [diazoxide],reversibility of the diazoxide effect on electrical activation,"FIG. 2, after removal of diazoxide, glucose 20 mM alone",not definitive
same,physiological activity (action potentials) of the β-pancreatic cells of the sensor in the presence of diazoxide,"FIG. 2, diazoxide 200 μM (around 13 to 16 min and 27 to 35 min) with glucose 20 mM",basal physiological activity
"GLP-1: incretin hormone, a physiological amplifier of the glucose response (HAEGTFTSDVSSYLEGQAAKEFIAWLVKGR; ends and bridges not checked; UniProt P01275 98-127, looked up)",time after GLP-1 injection until electrical activation increases,FIG. 4,twenty
same,electrical activation (action potentials) of the β-pancreatic cells after GLP-1,"FIG. 4, after injection of the incretin hormone GLP-1",increases significantly
